Assay results reported in patent publication US10519134B2, “Pyrazole compounds and methods of making and using same” (Lundbeck La Jolla Research Center, Inc., priority 2015, dated 2019).

Key:
MAGL = target: T1, MAGL (Mus musculus, UniProt O35678); assay: In vitro competitive activity-based protein profiling (mouse), MAGL gel band; type: biochemical; settings: for IC50: mouse; for inhibition at 1 µM: read-out: MAGL % inh. 1 μM
T1 construct: Proteomes (mouse brain membrane fraction or cell lysates); from tissue; host or cells: mouse brain membrane fraction (or cell lysates)
T1 sequence (O35678 1-303): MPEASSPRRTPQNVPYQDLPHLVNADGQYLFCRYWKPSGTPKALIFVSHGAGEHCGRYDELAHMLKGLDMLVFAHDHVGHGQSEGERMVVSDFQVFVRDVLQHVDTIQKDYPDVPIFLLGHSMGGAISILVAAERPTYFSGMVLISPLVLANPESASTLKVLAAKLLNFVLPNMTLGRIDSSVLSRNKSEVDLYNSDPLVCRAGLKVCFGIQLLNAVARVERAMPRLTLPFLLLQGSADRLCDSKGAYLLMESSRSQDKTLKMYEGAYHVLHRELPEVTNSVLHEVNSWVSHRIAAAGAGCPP
Method: (§1) In Vitro Competitive Activity-Based Protein Profiling (Mouse).
(§2) Proteomes (mouse brain membrane fraction or cell lysates) (50 μL, 1.0 mg/mL total protein concentration) were preincubated with varying concentrations of inhibitors at 37° C. After 30 min, FP-Rh or HT-01 (1.0 μL, 50 μM in DMSO) was added and the mixture was incubated for another 30 min at 37° C. Reactions were quenched with SDS loading buffer (15 μL—4×) and run on SDS-PAGE. Following gel imaging, serine hydrolase activity was determined by measuring fluorescent intensity of gel bands corresponding to MAGL, ABHD6, and FAAH, using ImageJ 1.43u software.

FAAH = target: T2, FAAH (Mus musculus, UniProt O08914); assay: In vitro competitive activity-based protein profiling (mouse), FAAH gel band; type: biochemical; settings: for IC50: mouse; for inhibition at 1 µM: read-out: FAAH % inh. 1 μM
T2 construct: Proteomes (mouse brain membrane fraction or cell lysates); from tissue; host or cells: mouse brain membrane fraction (or cell lysates)
T2 sequence (O08914 1-579): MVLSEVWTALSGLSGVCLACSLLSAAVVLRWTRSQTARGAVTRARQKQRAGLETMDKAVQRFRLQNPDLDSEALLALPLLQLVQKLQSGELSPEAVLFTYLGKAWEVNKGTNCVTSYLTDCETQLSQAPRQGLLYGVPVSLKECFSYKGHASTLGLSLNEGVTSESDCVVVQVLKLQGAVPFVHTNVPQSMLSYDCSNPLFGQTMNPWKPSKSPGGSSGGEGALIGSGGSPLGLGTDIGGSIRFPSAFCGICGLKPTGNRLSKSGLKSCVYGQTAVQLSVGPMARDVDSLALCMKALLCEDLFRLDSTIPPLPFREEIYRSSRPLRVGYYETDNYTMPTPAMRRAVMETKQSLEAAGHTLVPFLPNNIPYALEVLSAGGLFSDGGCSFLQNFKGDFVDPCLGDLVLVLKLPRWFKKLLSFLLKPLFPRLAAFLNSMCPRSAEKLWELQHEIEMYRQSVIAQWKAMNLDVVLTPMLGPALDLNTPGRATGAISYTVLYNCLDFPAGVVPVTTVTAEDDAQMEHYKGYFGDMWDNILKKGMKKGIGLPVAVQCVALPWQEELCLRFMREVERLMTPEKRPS
Method: as §1, §2

| Compound | IC50 (MAGL) | inhibition at 1 µM (MAGL) | IC50 (FAAH) | inhibition at 1 µM (FAAH) |
| --- | --- | --- | --- | --- |
| CC(=O)Nc1ccn(C(=O)N2CCC3(CCCN3Cc3ccc(Cl)cc3N3CCN(S(C)(=O)=O)CC3)CC2)n1 [Example 35, N-(1-(1-(4-chloro-2-(4-(methylsulfonyl)piperazin-1-yl)benzyl)-1,8-diazaspiro[4.5]decane-8-carbonyl)-1H-pyrazol-3-yl)acetamide] | 100 to 1000 nM | ≥ 75% | 1000 to 10000 nM | 0 to 25% |
| Cc1cc(CN2CCCC23CCN(C(=O)n2ccc(NC(=O)C(F)(F)F)n2)CC3)ccc1Cl [Example 117, N-(1-(1-(4-chloro-3-methylbenzyl)-1,8-diazaspiro[4.5]decane-8-carbonyl)-1H-pyrazol-3-yl)-2,2,2-trifluoroacetamide] | – | ≥ 75% | – | 0 to 25% |
| CC(=O)Nc1ccn(C(=O)N2CCC3(CCCN3Cc3ccc4c(ccn4C)c3)CC2)n1 [Example 185, N-(1-(1-((1-methyl-1H-indol-5-yl)methyl)-1,8-diazaspiro[4.5]decane-8-carbonyl)-1H-pyrazol-3-yl)acetamide] | 1000 to 10000 nM | ≥ 75% | 1000 to 10000 nM | 0 to 25% |
| CC(=O)Nc1ccn(C(=O)N2CCN(Cc3cc(Oc4nc5ccccc5s4)cc(C(F)(F)F)c3)CC2)n1 [Example 76, N-(1-(4-(3-(benzo[d]thiazol-2-yloxy)-5-(trifluoromethyl)benzyl)piperazine-1-carbonyl)-1H-pyrazol-3-yl)acetamide] | ≤ 100 nM | ≥ 75% | 100 to 1000 nM | ≥ 75% |
| CC(=O)Nc1ccn(C(=O)N2CCC3(CCCN3Cc3ccc(C)c(C(F)(F)F)c3)CC2)n1 [Example 23, N-(1-(1-(4-methyl-3-(trifluoromethyl)benzyl)-1,8-diazaspiro[4.5]decane-8-carbonyl)-1H-pyrazol-3-yl)acetamide] | ≤ 100 nM | ≥ 75% | 1000 to 10000 nM | 0 to 25% |
| CC(=O)Nc1ccn(C(=O)N2CCN(Cc3ccc(C(F)(F)F)cc3Oc3nc4ccccc4s3)CC2)n1 [Example 75, N-(1-(4-(2-(benzo[d]thiazol-2-yloxy)-4-(trifluoromethyl)benzyl)piperazine-1-carbonyl)-1H-pyrazol-3-yl)acetamide] | ≤ 100 nM | ≥ 75% | 1000 to 10000 nM | 0 to 25% |
| CC(=O)Nc1ccn(C(=O)N2CCC3(CCCN3Cc3ccc(Cl)cc3N3CCOCC3)CC2)n1 [Example 16, N-(1-(1-(4-chloro-2-morpholinobenzyl)-1,8-diazaspiro[4.5]decane-8-carbonyl)-1H-pyrazol-3-yl)acetamide] | 100 to 1000 nM | ≥ 75% | 1000 to 10000 nM | 0 to 25% |
| CC(=O)Nc1ccn(C(=O)N2CCN(Cc3ccc(C(F)(F)F)cc3N3CCC(F)(F)CC3)CC2)n1 [Example 46, N-(1-(4-(2-(4,4-difluoropiperidin-1-yl)-4-(trifluoromethyl)benzyl)piperazine-1-carbonyl)-1H-pyrazol-3-yl)acetamide] | ≤ 100 nM | ≥ 75% | 1000 to 10000 nM | 0 to 25% |
| Cc1cc(-c2ccccc2)ccc1CN1CCN(C(=O)n2ccc(NS(C)(=O)=O)n2)CC1 [Example 150, N-(1-(4-((3-methyl-[1,1′-biphenyl]-4-yl)methyl)piperazine-1-carbonyl)-1H-pyrazol-3-yl) methanesulfonamide] | 100 to 1000 nM | ≥ 75% | 100 to 1000 nM | ≥ 75% |
| CS(=O)(=O)Nc1ccn(C(=O)N2CCN(Cc3cc(N4CCOCC4)ccc3Cl)CC2)n1 [Example 258, N-(1-(4-(2-chloro-5-morpholinobenzyl)piperazine-1-carbonyl)-1H-pyrazol-3-yl) methanesulfonamide] | – | 0 to 25% | – | 0 to 25% |
| CS(=O)(=O)Nc1ccn(C(=O)N2CCN(Cc3ccc(Cl)c(-c4ncon4)c3)CC2)n1 [Example 261, N-(1-(4-(4-chloro-3-(1,2,4-oxadiazol-3-yl)benzyl)piperazine-1-carbonyl)-1H-pyrazol-3-yl) methanesulfonamide] | – | ≥ 75% | – | 0 to 25% |
| CS(=O)(=O)Nc1ccn(C(=O)N2CCN(Cc3cc(Cl)ccc3N3CCCC3)CC2)n1 [Example 179, N-(1-(4-(5-chloro-2-(pyrrolidin-1-yl)benzyl)piperazine-1-carbonyl)-1H-pyrazol-3-yl) methanesulfonamide] | – | ≥ 75% | – | 0 to 25% |
| Cn1ncc2cc(CN3CCN(C(=O)n4ccc(NS(C)(=O)=O)n4)CC3)ccc21 [Example 184, N-(1-(4-((1-methyl-1H-indazol-5-yl)methyl)piperazine-1-carbonyl)-1H-pyrazol-3-yl) methanesulfonamide] | – | 25 to 50% | – | 0 to 25% |
| CS(=O)(=O)Nc1ccn(C(=O)N2CCC3(CCCN3Cc3ccc(C(F)(F)F)cc3N3CCN(C4CC4)CC3)CC2)n1 [Example 239, N-(1-(1-(2-(4-cyclopropylpiperazin-1-yl)-4-(trifluoromethyl)benzyl)-1,8-diazaspiro[4.5]decane-8-carbonyl)-1H-pyrazol-3-yl) methanesulfonamide] | – | 0 to 25% | – | 0 to 25% |
| CS(=O)(=O)Nc1ccn(C(=O)N2CCN(Cc3ccc(Cl)c(N4CCC(C(N)=O)CC4)c3)CC2)n1 [Example 249, 1-(2-chloro-5-((4-(3-(methylsulfonamido)-1H-pyrazole-1-carbonyl)piperazin-1-yl)methyl)phenyl) piperidine-4-carboxamide] | – | 0 to 25% | – | 0 to 25% |
| CC(=O)Nc1ccn(C(=O)N2CCN(Cc3ccc(C#N)cc3-c3nnn[nH]3)CC2)n1 [Example 115, N-(1-(4-(4-cyano-2-(1H-tetrazol-5-yl)benzyl)piperazine-1-carbonyl)-1H-pyrazol-3-yl)acetamide] | 100 to 1000 nM | ≥ 75% | 1000 to 10000 nM | 0 to 25% |
| CS(=O)(=O)Nc1ccn(C(=O)N2CCN(Cc3ccc(Cl)c(C4CCCC4)c3)CC2)n1 [Example 272, N-(1-(4-(4-chloro-3-cyclopentylbenzyl)piperazine-1-carbonyl)-1H-pyrazol-3-yl) methanesulfonamide] | – | ≥ 75% | – | 0 to 25% |
| CC(=O)Nc1ccn(C(=O)N2CCC3(CCCN3Cc3ccc(C(F)(F)F)cc3OCC(=O)N3CCCC3)CC2)n1 [Example 89, N-(1-(1-(2-(2-oxo-2-(pyrrolidin-1-yl)ethoxy)-4-(trifluoromethyl)benzyl)-1,8-diazaspiro[4.5]decane-8-carbonyl)-1H-pyrazol-3-yl)acetamide] | – | ≥ 75% | – | 0 to 25% |
| CS(=O)(=O)Nc1ccn(C(=O)N2CCN(Cc3ccc(-c4ccccc4)cc3Cl)CC2)n1 [Example 158, N-(1-(4-((3-chloro-[1,1′-biphenyl]-4-yl)methyl)piperazine-1-carbonyl)-1H-pyrazol-3-yl) methanesulfonamide] | ≤ 100 nM | ≥ 75% | 100 to 1000 nM | ≥ 75% |
| CS(=O)(=O)Nc1ccn(C(=O)N2CCN(Cc3ccc(C(F)(F)F)c(Cl)c3)CC2)n1 [Example 154, N-(1-(4-(3-chloro-4-(trifluoromethyl)benzyl)piperazine-1-carbonyl)-1H-pyrazol-3-yl) methanesulfonamide] | – | ≥ 75% | – | 0 to 25% |
| CC(=O)N(C)c1ccn(C(=O)N2CCC3(CCCN3Cc3cc(N4CCCC4)cc(C(F)(F)F)c3)CC2)n1 [Example 66, N-methyl-N-(1-(1-(3-(pyrrolidin-1-yl)-5-(trifluoromethyl)benzyl)-1,8-diazaspiro[4.5]decane-8-carbonyl)-1H-pyrazol-3-yl)acetamide] | – | 50 to 75% | – | 0 to 25% |
| CS(=O)(=O)Nc1ccn(C(=O)N2CCN(Cc3ccc(C(F)(F)F)c(N4CCOCC4)c3)CC2)n1 [Example 168, N-(1-(4-(3-morpholino-4-(trifluoromethyl)benzyl)piperazine-1-carbonyl)-1H-pyrazol-3-yl) methanesulfonamide] | – | ≥ 75% | – | 0 to 25% |
